These results are taken from US5659041A, “Hydrazino-type radionuclide chelators having an N3 S configuration” (Resolution Pharmaceuticals, Inc., priority 1994, dated 1997).

Numbered stars: 1 amine (or outer) side, 2 acyl side, 3 side chain; on linkers, the order of the positions; unused ones are H or OH. Square brackets hold non-standard residues; d marks the D form. Peptide text beside a SMILES is read from it. X2 = CN(N[*:1])c1ccc(C(=O)[*:2])cn1; X1 = O=C(CSCN[*:1])[*:2]

A short description of series [1]: Extent of complexation of 99mTc with chelators (radioactivity of eluted C-18 Sep-Pak fractions). In kind it is physicochemical. Particulars: for Chelator (EtOH-saline eluate), percent of total / Chelator (EtOH-saline eluate), radioactivity / TcO2, percent of total / TcO2, radioactivity / TcO4- (HCl eluate), percent of total / TcO4- (HCl eluate), radioactivity of eluted fraction: Example 2: SnCl2, pH 6, Example 4: sodium dithionite, pH 12-13, 75° C. How it is done: The chelator N-(S-benzoylmercaptoacetyl)-glycyl-2-pyridylhydrazide (example 2, 1 mg) was dissolved in EtOH-water and hydrolyzed by heating with NaOH, after which the reaction mixture was neutralized with acetic acid to pH 6. 350 μg hydrolyzed chelator was reacted with 103 MBq TcO4^- and 10 μg SnCl2 at room temperature. […] To achieve adequate separation of the chelator, the solution was then loaded on a C-18 SepLPak column which was eluted with dilute HCI to remove Tc04-. Subsequent elution with 1:1 EtOH-saline removed the chelator while Tc02 remained on the column.
Another chelator was similarly labeled. Particularly, 300 μg of the hydrolyzed chelator N-(S-benzoylmercaptoacetyl)-glycyl-3-(6-chloropyridazyl)-hydrazide (example 4) was adjusted to pH 12-13 and reduced with 100 μg of sodium dithionite for 10 minutes at 75° C. The resulting mixture was then loaded on a C-18 Sep-Pak column and eluted with dilute HCI followed by EtOH-saline. The extent of complexation of ^99m Tc with chelators was measured by radioactivity of the eluted fractions; results are shown in the table below.

Series [2] is described as follows: In vivo distribution of 99mTc labeled chelators within rats. Details: species or system male Wistar rats. Particulars: rat, i.v. tail vein. Here is the method: Distribution within rats of selected chelators and a reference chelator was determined using established protocols. Briefly, male Wistar rats (Charles River, 200 g) were anesthetized with somnitol (40 to 50 mg/kg) and 200 μL of the labeled chelator (ie. 200 μCi) was injected intravenously via the tail vein. Serial whole-body scintigrams were acquired for first 10 minutes. After further images were obtained at 60 and 120 minutes, the rat was killed with anesthesia and samples of organs (blood, heart, lung, liver, spleen, kidney, muscle, GI tract) were weighed and counted in either a well-type gamma counter or in a gamma dose calibrator. Dose calculations were made based On the assumption that rats weighed 200 g and that the blood volume constituted 8% body weight. All results were corrected for the residual dose in the tail.

The nature of series [3]: Labeling of chelator-conjugate with 99mTc (HPLC radioactivity of fractions). In kind it is physicochemical. Particulars: pertechnetate, stannous gluconate, boiling water bath 12 minutes. How it is done:
The chelator-conjugate of example 11 (200 μL, 1 mg/mL saline) was injected into a 3 mL vacutainer with 100 μL pertechnetate (10 mCi) and 100 μL stannous gluconate (50 μg stannous chloride and 1 mg sodium gluconate). The tube was placed in a boiling water bath for 12 minutes and then filtered through a Watman PVDF syringe filter to collect the labeled conjugate solution which was further diluted with saline to prepare an injectable solution (2 Mbq/mL). The chelator-conjugate was isolated by HPLC (Beckman) from a (20 μL) sample (before dilution) to determine the labeling yield by measuring radioactivity of the fractions. 70.8%, 5.1% and 15.0% of the label was found in each of three fractions eluted for a 90.9% total labeling yield.

In series [4] the test system is "Tuftsin" receptors on leukocytes. Nature of the series: Binding of TKPPR peptide to Tuftsin receptors on leukocytes.
The mark [5] stands for this setting: 200 μCi, organs counted after 120 minutes images.

For the molecule `O=C(CSC(=O)c1ccccc1)NCC(=O)NNc1ccccn1` [Example 2, N-(S-benzoylmercaptoacetyl)-glycyl-2-pyridylhydrazide], in series [1], the “Chelator (EtOH-saline eluate), percent of total” value is 68%; the “Chelator (EtOH-saline eluate), radioactivity” value stood at 27.6 MBq; the “TcO2, percent of total” value was 31%; the “TcO2, radioactivity” value is reported as 12.5 MBq. For the same molecule, in series [1], the “TcO4- (HCl eluate), percent of total” value was found to be 1% and the “TcO4- (HCl eluate), radioactivity of eluted fraction” value is on record as 0.15 MBq. For the same molecule, the “activity present as TcO2” value in series [1] (SnCl2 at room temperature, pH 6, did not change after heating 10 minutes at 80° C.) is “Approximately half activity was present as TcO2”. Also, in series [2] (setting [5]), the “dose in the liver and GI tract” value is “about 60%”; the “dose remaining in the blood” value is reported as “about 6%”.
For `COC(=O)CC[C@H](NC(=O)CSC(=O)c1ccccc1)C(=O)NNc1ccccn1` [Example 3, No(S-benzoylmercaptoacetyl)-L-glutamyl-(gamma-methyl ester)-2-pyridylhydrazide], the “accumulation in the kidney” value in series [2] (200 μCi, compared with the other chelators) is “greatest accumulation in the kidney”.
Take `O=C(CSC(=O)c1ccccc1)NCC(=O)NNc1ccc(Cl)nn1` [Example 4, N-(S-benzoylmercaptoacetyl)-glycyl-3-(6-chloropyridazyl)-hydrazide]: in series [1], the “Chelator (EtOH-saline eluate), percent of total” value is given as 78%; the “Chelator (EtOH-saline eluate), radioactivity” value came to 14.19 MBq; the “TcO2, percent of total” value is 14%; the “TcO2, radioactivity” value was 2.55 MBq. Moreover, in series [1], the “TcO4- (HCl eluate), percent of total” value was 8% and the “TcO4- (HCl eluate), radioactivity of eluted fraction” value was 1.38 MBq. Moreover, in series [2] (200 μCi), the “clearance from the blood (and other tissues)” value is “fastest clearance from the blood and other tissues”; the route of elimination result is “mainly eliminated through the liver and GI tract”. In series [2] (setting [5]), the “dose in the liver and GI tract” value is “About 70%”.
`COC(=O)CC[C@H](NC(=O)CSC(=O)c1ccccc1)C(=O)NNc1ccc(Cl)nn1` [Example 5, N-(S-benzoylmercaptoacetyl)-L-glutamyl-(gamma-methylester)-3-(6-chloropyridazyl)-hydrazide]: in series [2] (setting [5]), the “dose localized in the GI tract” value is reported as 55% and the “dose remaining in the blood” value is reported as “about 10%”.
Take `CC(=O)NCSCC(=O)N[C@@H](CO)C(=O)NN(C)c1ccc(C(=O)NCC(=O)N[C@H](C(=O)N[C@@H](CCCCN)C(=O)N2CCC[C@H]2C(=O)N2CCC[C@H]2C(=O)N[C@@H](CCCNC(=N)N)C(=O)O)[C@@H](C)O)cn1` [Example 11, S-Acm-Mercaptoacetyl-Ser-N-methylhydrazino nicotinic acid- Gly--Thr--Lys--Pro--Pro--Arg] (Ac-[X1]S[X2]GTKPPR-OH): the total labeling yield in series [3] is 90.9%.
In the case of `O=C(CNC(=O)CSC(=O)c1ccccc1)NCc1ccccn1` [N-(S-benzoylmercaptoacetyl)-glycyl-2-pyridylmethylamide, reference compound], the “retention in the blood pool” value in series [2] (reference chelator lacking hydrazide) is reported as “extensively retained in the blood pool”.
Regarding TKPPR, the “binding to "Tuftsin" receptors on leukocytes” value in series [4] was “binds particularly well”.
